Our source for the viability values is ChEMBL document CHEMBL4251715, “Hepatoprotective Dibenzocyclooctadiene and Tetrahydrobenzocyclooctabenzofuranone Lignans from Kadsura longipedunculata” (2018).

The assay has as its system HepG2. Kind of assay: Hepatoprotective activity against APAP-induced toxicity in human HepG2 cells assessed as cell survival rate at 10 uM after 48 hrs by MTT assay relative to control. Format: functional. The conditions noted are these: HepG2, 48 h, read-out: Survival. A general note: Tetrazolium dyes change colour on reduction, which living cells bring about.
Take `COC1=C(OC)C(=O)[C@]23COc4c5c(cc(c42)[C@H](OC(C)=O)[C@H](C)[C@H](C)CC3=C1)OCO5`: the viability at 10 µM came to 50.2%. For `COC1=C(OC)C(=O)[C@]23COc4c5c(cc(c42)[C@H](OC(=O)c2ccccc2)[C@H](C)[C@](C)(O)CC3=C1)OCO5` the value was 52.2%. Turning to `COC(=O)c1cc(OC)c2c(c1-c1c(CO)cc(OC)c3c1OCO3)OCO2` [BICYCLOL], the viability at 10 µM worked out at 49%.
